Key:
[1] = system: DENV-1 strain TC974 #666; experiment: Tetravalent RT-qPCR assay, serotype 1; format: cell-based; settings: Dengue virus, DENV1, 72 h; RT-qPCR serotype 1 TC974#666, Protocol A, Vero cells, day 3
Procedure: (§1) The antiviral activity of the compounds of the invention was tested against DENV-1 strain TC974 #666 (NCPV), DENV-2 strain 16681, DENV-3 strain H87 (NCPV) and DENV-4 strain H241 (NCPV) in a RT-qPCR assay. Therefore, Vero cells were infected with either DENV-1, or -2, or -3, or -4 in the presence or absence of test compounds. At day 3 post-infection, the cells were lysed and cell lysates were used to prepare cDNA of both a viral target (the 3′UTR of DENV; Table 2) and cellular reference gene (β-actin, Table 2). Subsequently, a duplex real time PCR was performed on a Lightcycler480 instrument. The generated Cp value is inversely proportional to the amount of RNA expression of these targets. Inhibition of DENV replication by a test compound results in a shift of Cp's for the 3′UTR gene. On the other hand, if a test compound is toxic to the cells, a similar effect on β-actin expression will be observed. The comparative ΔΔCp method is used to calculate EC50, which is based on the relative gene expression of the target gene (3′UTR) normalized with the cellular housekeeping gene (β-actin). In addition, CC50 values are determined based on the Cp values acquired for the housekeeping gene β-actin.
(§2) The culture medium consisted of minimal essential medium supplemented with 2% of heat-inactivated fetal calf serum, 0.04% gentamycin (50 mg/mL) and 2 mM of L-glutamine. Vero cells, obtained from ECACC, were suspended in culture medium and 75 μL/well was added in 96-well plates (10000 cells/well), which already contain the antiviral compounds. […] In addition, each plate contains wells which are assigned as virus controls (containing cells and virus in the absence of compound) and cell controls (containing cells in the absence of virus and compound). Once the cells were added in the plates, the plates were incubated in a fully humidified incubator (37° C., 5% CO2) until the next day. Dengue viruses serotype-1, 2, 3 and 4 were diluted in order to obtain a Cp of ˜22-24 in the assay. Therefore, 25 μL of virus suspension was added to all the wells containing test compound and to the wells assigned as virus control. In parallel, 25 μL of culture medium was added to the cell controls. Next, the plates were incubated for 3 days in a fully humidified incubator (37° C., 5% CO2). After 3 days, the supernatant was removed from the wells and the cells were washed twice with ice-cold PBS (˜100 μL). The cell pellets within the 96-well plates were stored at −80° C. for at least 1 day. Next, RNA was extracted using the Cells-to-CT™ lysis kit, according to the manufacturer's guideline (Life Technologies). The cell lysates can be stored at −80° C. or immediately used in the reverse transcription step.
(§3) In preparation of the reverse transcription step, mix A (table 3A) was prepared and 7.57 μL/well was dispensed in a 96-well plate. After addition of 5 μL of the cell lysates, a five minute denaturation step at 75° C. was performed (table 3B). Afterwards, 7.43 μL of mix B was added (table 3C) and the reverse transcription step was initiated (table 3D) to generate cDNA.
(§4) Finally, a RT-qPCR mix was prepared, mix C (table 4A), and 22.02 μL/well was dispensed in 96-well LightCycler qPCR plates to which 3 μL of cDNA was added and the qPCR was performed according to the conditions in table 4B on a LightCycler 480.
(§5) Using the LightCycler software and an in-house LIMS system, dose response curves for each compound were calculated and the half maximal effective concentration (EC50) and the half maximal cytotoxic concentration (CC50) were determined (Tables 5-8).

[2] = Cytotoxicity in RT-qPCR assay (Cp of housekeeping gene β-actin); format: cell-based; settings: African green monkey
Procedure: as §1, §2, §5

[3] = system: DENV-2 strain 16681; experiment: Tetravalent RT-qPCR assay, serotype 2; format: cell-based; settings: Dengue virus, DENV2, 72 h; RT-qPCR serotype 2 16681, Protocol A, Vero cells, day 3
Procedure: as §1, §2, §3, §4, §5

[4] = system: DENV-2 16681 strain; experiment: DENV-2 antiviral assay (eGFP-labeled virus in Vero cells); format: cell-based, Dengue virus; settings: DENV-2 16681 eGFP, MOI 0.5, 3 days
Procedure: The antiviral activity of all the compounds of the invention was tested against the DENV-2 16681 strain which was labeled with enhanced green fluorescent protein (eGPF). The culture medium consists of minimal essential medium supplemented with 2% of heat-inactivated fetal calf serum, 0.04% gentamycin (50 mg/mL) and 2 mM of L-glutamine. Vero cells, obtained from ECACC, were suspended in culture medium and 25 μL was added to 384-well plates (2500 cells/well), which already contain the antiviral compounds. Typically, these plates contain a 5-fold serial dilution of 9 dilution steps of the test compound at 200 times the final concentration in 100% DMSO (200 nL). […] Finally, each plate contains wells which are assigned as virus controls (containing cells and virus in the absence of compound), cell controls (containing cells in the absence of virus and compound) and medium controls (containing medium in the absence of cells, virus and compounds). To the wells assigned as medium control, 25 μL of culture medium was added instead of Vero cells. Once the cells were added to the plates, the plates were incubated for 30 minutes at room temperature to allow the cells to distribute evenly within the wells. Next, the plates were incubated in a fully humidified incubator (37° C., 5% CO2) until the next day. Then, DENV-2 strain 16681, labeled with eGFP, was added at a multiplicity of infection (MOI) of 0.5. Therefore, 15 μL of virus suspension was added to all the wells containing test compound and to the wells assigned as virus control. In parallel, 15 μL of culture medium was added to the medium and cell controls. Next, the plates were incubated for 3 days in a fully humidified incubator (37° C., 5% CO2). At the day of the read out, the eGFP fluorescence was measured using an automated fluorescence microscope at 488 nm (blue laser). Using an in-house LIMS system, inhibition dose response curves for each compound were calculated and the half maximal effective concentration (EC50) was determined. Therefore, the percent inhibition (I) for every test concentration is calculated using the following formula: I=100*([…])/(SVC−SCC); ST, SCC and SVC are the amount of eGFP signal in the test compound, cell control and virus control wells, respectively. The EC50 represents the concentration of a compound at which the virus replication is inhibited with 50%, as measured by a 50% reduction of the eGFP fluorescent intensity compared to the virus control. The EC50 is calculated using linear interpolation (Table 1).

[5] = system: DENV-4 strain H241; experiment: Tetravalent RT-qPCR assay, serotype 4; format: cell-based; settings: Dengue virus, DENV4, 72 h; RT-qPCR serotype 4 H241, Protocol A, Vero cells, day 3
Procedure: as §1, §2, §3, §4, §5

[6] = system: DENV-3 strain H87; experiment: Tetravalent RT-qPCR assay, serotype 3; format: cell-based; settings: Dengue virus, DENV3, 72 h; RT-qPCR serotype 3 H87, Protocol A, Vero cells, day 3
Procedure: as §1, §2, §3, §4, §5

[7] = system: Vero cells; experiment: Toxicity on the same plates (ATPlite cell viability); settings: Vero cells, same plates as DENV-2 antiviral assay
[8] = RT-qPCR serotype 1 TC974#666, Protocol A
[9] = RT-qPCR serotype 2 16681, Protocol A
[10] = RT-qPCR serotype 3 H87, Protocol A
[11] = RT-qPCR serotype 4 H241, Protocol A

COc1cc(NC(C(=O)c2c[nH]c3ccc(C(F)(F)F)cc23)c2ccc(F)cc2OC)cc(OCCO)c1 (single isomer, unassigned) [Compound 1B, 2-(4-fluoro-2-methoxyphenyl)-2-((3-(2-hydroxyethoxy)-5-methoxyphenyl)amino)-1-(5-(trifluoromethyl)-1H-indol-3-yl)ethanone]
EC50 [1]: 1.3 nM
CC50 at 3 days [2, 8]: 3300 nM
CC50 at 3 days [2, 9]: 3500 nM
CC50 at 3 days [2, 10]: 3200 nM
CC50 at 3 days [2, 11]: 2600 nM
EC50 [3]: 0.41 nM
EC50 [4]: 0.62 nM
EC50 [5]: 50 nM
EC50 [6]: 14 nM

COc1cc(NC(C(=O)c2c[nH]c3cc(F)c(C(F)(F)F)cc23)c2ccc(F)cc2OC)cc(OCCO)c1 (single isomer, unassigned) [Compound 3A, 2-(4-fluoro-2-methoxyphenyl)-1-(6-fluoro-5-(trifluoromethyl)-1H-indol-3-yl)-2-((3-(2-hydroxyethoxy)-5-methoxyphenyl)amino)ethanone]
EC50 [1]: 2.1 nM
CC50 at 3 days [2, 8]: > 2500 nM
CC50 at 3 days [2, 9]: 2600 nM
CC50 at 3 days [2, 10]: > 2500 nM
CC50 at 3 days [2, 11]: > 2500 nM
EC50 [3]: 0.46 nM
CC50 [7]: 2400 nM
EC50 [4]: 0.47 nM
EC50 [5]: 62 nM
EC50 [6]: 18 nM

COc1cc(NC(C(=O)c2c[nH]c3c(C)cc(C(F)(F)F)cc23)c2ccc(F)cc2OC)cc(OCCO)c1 (single isomer, unassigned) [Compound 4B, 2-(4-fluoro-2-methoxyphenyl)-2-((3-(2-hydroxyethoxy)-5-methoxyphenyl)amino)-1-(7-methyl-5-(trifluoromethyl)-1H-indol-3-yl)ethanone]
EC50 [1]: 1.4 nM
CC50 at 3 days [2, 8]: > 2500 nM
CC50 at 3 days [2, 9]: > 2400 nM
CC50 at 3 days [2, 10]: > 2500 nM
CC50 at 3 days [2, 11]: > 2100 nM
EC50 [3]: 0.36 nM
CC50 [7]: 2500 nM
EC50 [4]: 0.46 nM
EC50 [5]: 51 nM
EC50 [6]: 9.2 nM

COc1cc(NC(C(=O)c2c[nH]c3ccc(OC(F)(F)F)cc23)c2ccc(F)cc2OC)cc(OCCO)c1 (single isomer, unassigned) [Compound 5B, 2-(4-fluoro-2-methoxyphenyl)-2-((3-(2-hydroxyethoxy)-5-methoxyphenyl)amino)-1-(5-(trifluoromethoxy)-1H-indol-3-yl)ethanone]
EC50 [1]: 0.77 nM
CC50 at 3 days [2, 8]: > 2500 nM
CC50 at 3 days [2, 9]: 3200 nM
CC50 at 3 days [2, 10]: > 2500 nM
CC50 at 3 days [2, 11]: 2400 nM
EC50 [3]: 0.36 nM
CC50 [7]: 3300 nM
EC50 [4]: 0.3 nM
EC50 [5]: 50 nM
EC50 [6]: 6 nM
